Measured values: publication PMC9148287, “Cytotoxic and Radiosensitising Effects of a Novel Thioredoxin Reductase Inhibitor in Brain Cancers” (Molecular Neurobiology, 2022)

How the values were obtained:
DAOY cells [1] = test: Intracellular ROS levels (H2DCF-DA flow cytometry); assay type: cell-based, human; conditions: 1 mM H2O2 1 h
Experimental: (§1) Intracellular ROS levels were measured as described previously. Briefly, cells were treated with various concentrations of IQ10 for 4 h either alone or with subsequent exposure to 1 mM H2O2 (ROS positive control) for 1 h. Cells treated with DMSO, at the same dilution ratio as IQ10, were set as negative controls. Cells were then incubated with the cell-permeable dye 2′,7 ′-dichlorodihydrofluorescein diacetate (H2DCF-DA, Sigma) in fresh medium at a final concentration of 1 μM at 37 °C for 30 min. Cells were harvested and intracellular ROS levels assessed by measurement of fluorescence using a MACSquant flow cytometer (Miltenyi Biotec). A gate was set to include only healthy living cells in the analysis. Data were analysed using FlowJo 7.6.1 software (Tree Star) to obtain the median fluorescence intensity (MFI) of each group representing the amount of intracellular ROS generation.

UW228-3 cells [2] = test: Intracellular ROS levels (H2DCF-DA flow cytometry); assay type: cell-based, human; conditions: UW228-3, 1 mM H2O2 1 h
Experimental: as §1

UW228-3 cells [3] = test: Clonogenic survival assay; assay type: cell-based; conditions: Homo sapiens; UW228-3, 48 h post-treatment
Experimental: (§2) Cells collected from the growth assay (48 h time point) were counted and plated at low-density, in triplicate, and incubated at 37 °C, 5% CO2, undisturbed, for colony formation. After 12 days (21 days for KNS42), colonies were fixed (50% methanol in PBS), stained (0.5% crystal violet solution) and counted manually. Any cluster of cells greater than 50 in number was counted as a surviving colony. The plating efficiency (PE) was calculated as number of control colonies formed/number of control cells seeded. For single-agent treatment, drug or radiation, the surviving fraction (SF) was calculated as follows: number of colonies formed after treatment / (number of cells seeded × PE). […]
(§3) Cells were seeded in ultra-low attachment round-bottom 96-well plates (Corning), aggregated by centrifugation (2000 rpm/10 min), and allowed to grow for 4 days under standard culture conditions to form mature spheroids. […] Viability was assessed using the resazurin reduction assay (CellTiter-Blue, Promega) following the manufacturer’s protocol. […] Fluorescence was measured with an excitation wavelength of 560 nm and emission 590 nm on a plate reader. […] Six spheroids per condition were assessed in each experiment. The clonogenicity of cells cultured in spheroids was assessed using conventional 2D clonogenic survival assay as described above. […]

KNS42 cells [4] = test: Clonogenic survival assay; assay type: cell-based; conditions: Homo sapiens, KNS-42; KNS42, 48 h post-treatment
Experimental: (§4) Cells collected from the growth assay (48 h time point) were counted and plated at low-density, in triplicate, and incubated at 37 °C, 5% CO2, undisturbed, for colony formation. After 12 days (21 days for KNS42), colonies were fixed (50% methanol in PBS), stained (0.5% crystal violet solution) and counted manually. Any cluster of cells greater than 50 in number was counted as a surviving colony. The plating efficiency (PE) was calculated as number of control colonies formed/number of control cells seeded. For single-agent treatment, drug or radiation, the surviving fraction (SF) was calculated as follows: number of colonies formed after treatment / (number of cells seeded × PE). For drug radiation combination experiments, cytotoxicity of drug treatment was accounted for by calculating SF as follows: number of colonies formed from each radiation dose / (number of cells seeded × PE × SF of drug-treated cell at 0 Gy).

SNB19 cells [5] = test: Clonogenic survival assay; assay type: cell-based; conditions: Homo sapiens, SNB-19; SNB19, 48 h post-treatment
Experimental: as §4

SF188 cells [6] = test: Clonogenic survival assay; assay type: cell-based; conditions: Homo sapiens, SF-188; SF188, 48 h post-treatment
Experimental: as §4
Cells were seeded, in triplicate, in 24-well plates, incubated overnight and transfected with either a pre-designed siRNA directed against human TrxR-1 (SI00050876, target sequence, 5′-[…]-3′, Qiagen) or mock-transfected with a scrambled siRNA (Allstars Negative Control siRNA, Qiagen). […]

DAOY cells [7] = test: Clonogenic survival assay; assay type: cell-based; conditions: Homo sapiens, 48 h post-treatment
Experimental: as §2, §3

DAOY cells [8] = test: Growth assay (cell counts); assay type: cell-based; conditions: Homo sapiens, 2D normoxia
Experimental: (§5) Cells (2 × 10^5) were seeded in six-well plates, allowed to adhere overnight and then treated, in triplicate, with different concentrations of TMZ (0–1000 μM) or IQ10 (0–1 µM) for up to 72 h under normoxic or hypoxic conditions. DMSO was added to the negative control groups at the same volume equivalent to that in the treatment groups. For hypoxic experiments, cells were pre-incubated at 1% O2 for 24 h prior to drug treatment. Cells were then treated with different concentrations of IQ10 for up to an additional 72 h under hypoxia. Normoxic controls were always assessed in parallel to hypoxic-treated groups. Every 24 h after initiating drug treatment, cells were trypsinised and counted using a Countess system. Cell counts were recorded, analysed and plotted over the 72 h period.
(§6) Cells were seeded, in triplicate, in 24-well plates, incubated overnight and transfected with either a pre-designed siRNA directed against human TrxR-1 (SI00050876, target sequence, 5′-[…]-3′, Qiagen) or mock-transfected with a scrambled siRNA (Allstars Negative Control siRNA, Qiagen). Briefly, 2.5 μL of 2 μM siRNA and 4.5 μL HiPerFect transfection reagent (Qiagen) were combined in 100 μL medium (serum and antibiotic free) and incubated at room temperature for 10 min to allow complex formation. Reaction mixtures were then added to 400 μL of fresh medium. Medium was aspirated from wells and replaced with the appropriate 500 μL of transfection solution. After 48 h of incubation, the cells were re-plated, allowed to adhere overnight and treated with various concentrations of IQ10 for an additional 48 h. Growth curve and/or clonogenic survival assays were used as the endpoint to assess the drug effects. Western blotting analysis of TrxR and β-actin (as a loading control) were used to confirm that TrxR expression was suppressed for the duration of the experiment.

SF188 cells [9] = test: Growth assay (cell counts); assay type: cell-based; conditions: Homo sapiens, SF-188, 2D normoxia
Experimental: as §5, §6

UW228-3 cells [10] = test: Growth assay (cell counts); assay type: cell-based; conditions: Homo sapiens, 2D normoxia
Experimental: as §5

KNS42 cells [11] = test: Growth assay (cell counts); assay type: cell-based; conditions: Homo sapiens, KNS-42, 2D normoxia
Experimental: as §5

SNB19 cells [12] = test: Growth assay (cell counts); assay type: cell-based; conditions: Homo sapiens, SNB-19, 2D normoxia
Experimental: as §5

TrxR [13] = target: T1, TrxR (Homo sapiens, UniProt Q16881); test: TrxR activity assay (endpoint insulin reduction) on lysates of drug-treated cells; assay type: cell-based; conditions: 1 μM, 4 h; SF188, DAOY and UW228-3 cells
T1 construct: cells were trypsinised, counted and lysed in M-PER protein extraction reagent; endogenous in cells; host or cells: SF188, DAOY, UW228-3
T1 sequence (Q16881 151-649 limits assumed): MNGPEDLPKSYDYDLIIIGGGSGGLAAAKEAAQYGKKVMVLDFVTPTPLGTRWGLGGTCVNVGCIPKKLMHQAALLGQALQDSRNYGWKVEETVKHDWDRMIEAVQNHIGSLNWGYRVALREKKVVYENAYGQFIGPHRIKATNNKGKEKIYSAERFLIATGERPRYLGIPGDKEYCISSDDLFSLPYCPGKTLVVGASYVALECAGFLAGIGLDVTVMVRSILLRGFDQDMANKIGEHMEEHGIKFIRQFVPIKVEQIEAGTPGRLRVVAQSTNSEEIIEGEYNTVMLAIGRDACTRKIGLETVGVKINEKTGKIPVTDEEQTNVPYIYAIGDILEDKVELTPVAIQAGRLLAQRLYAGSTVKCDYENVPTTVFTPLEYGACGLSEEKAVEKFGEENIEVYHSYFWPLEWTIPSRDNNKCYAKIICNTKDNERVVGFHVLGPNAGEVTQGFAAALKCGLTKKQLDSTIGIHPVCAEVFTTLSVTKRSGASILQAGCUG
Experimental: Following incubation, with various concentrations of IQ10 or with 1 μM of auranofin, for 4/48 h, cells were trypsinised, counted and lysed in M-PER protein extraction reagent (Thermo Fisher) for 20 min. Lysates were analysed immediately or stored for future use at − 80 °C. The Bio-Rad protein assay kit (Bio-Rad Laboratories) was used to measure the protein concentration of each sample. TrxR activity was measured in 96-well plates using the endpoint insulin reduction assay as described previously with appropriate modifications. Briefly, the assay mixture contained the following in a final volume of 100 μL HE buffer (100 mM HEPES, pH 7.2; 5 mM EDTA): 80 µg of protein, 2 µM Escherichia coli Trx, 1 mg/ml bovine insulin and 1 mM NADPH. Duplicate samples were used, either with or without exogenous Trx enzyme. […] Absorbance was measured at 405 nm using a microplate reader (FLUOstar OPTIMA, BMG LABTECH). The absorbance of the sample lacking exogenous Trx was subtracted from that of the corresponding sample containing exogenous Trx. The difference in absorbance indicates TrxR function. The amount of functional TrxR was calculated from the standard curve, generated simultaneously, with pure enzymes. The TrxR activity was expressed as the percentage of DMSO-treated control.

TrxR [14] = tested on: TrxR; parameters: method as in PMID 17320769; conditions: ovarian cancer cells; cited from earlier work

OO [H2O2]
intracellular ROS levels compared to control (DAOY cells [1]): 1.4 fold | intracellular ROS levels compared to control (UW228-3 cells [2]): 1.5 fold

Cn1nnc2c(C(N)=O)ncn2c1=O [TMZ, temozolomide]
IC50 (UW228-3 cells [3]): 93.1 ± 30 µM | IC50 (KNS42 cells [4]): 49.5 ± 11.4 µM | IC50 (SNB19 cells [5]): 63.7 ± 10 µM | IC50 (SF188 cells [6]): 15.2 ± 0.9 µM | IC50 (DAOY cells [7]): 464 ± 20.1 µM | IC50 (DAOY cells [8]; 24 h): 547 ± 11.6 µM | IC50 (DAOY cells [8]; 48 h): 248 ± 49.8 µM | IC50 (DAOY cells [8]; 72 h): 162 ± 14.3 µM | IC50 (SF188 cells [9]; SF188, 24 h): > 1000 µM | IC50 (SF188 cells [9]; SF188, 48 h): 321 ± 86.8 µM | IC50 (SF188 cells [9]; SF188, 72 h): 188 ± 24.1 µM | IC50 (UW228-3 cells [10]; UW228-3, 24 h): > 1000 µM | IC50 (UW228-3 cells [10]; UW228-3, 48 h): 314 ± 17.8 µM | IC50 (UW228-3 cells [10]; UW228-3, 72 h): 148 ± 14.7 µM | IC50 (KNS42 cells [11]; KNS42, 24 h): > 1000 µM | IC50 (KNS42 cells [11]; KNS42, 48 h): > 1000 µM | IC50 (KNS42 cells [11]; KNS42, 72 h): 731 ± 24.3 µM | IC50 (SNB19 cells [12]; SNB19, 24 h): > 1000 µM | IC50 (SNB19 cells [12]; SNB19, 48 h): > 1000 µM | IC50 (SNB19 cells [12]; SNB19, 72 h): 980 ± 281 µM

CC(=O)OC[C@H]1O[C@@H]([S-])[C@H](OC(C)=O)[C@@H](OC(C)=O)[C@@H]1OC(C)=O.CCP(CC)CC.[Au+] [auranofin]
average TrxR inhibition (TrxR [13]): 83–95% | concentrations inhibiting TrxR (TrxR [14]): nanomolar concentrations
